Data taken from US5288758A, “New urea derivatives, their preparation and their application in therapy” (priority 1991, dated 1994).

Target: acetylcholinesterase (Homo sapiens, UniProt P22303)
Experiment: biochemical
Settings: method of Ellman et al., Biochem. Pharmacol. 7, 88-95 (1961); read-out: Inhibition of acetylcholinesterase activity, IC50

acetylcholinesterase, sequence (P22303 32-614): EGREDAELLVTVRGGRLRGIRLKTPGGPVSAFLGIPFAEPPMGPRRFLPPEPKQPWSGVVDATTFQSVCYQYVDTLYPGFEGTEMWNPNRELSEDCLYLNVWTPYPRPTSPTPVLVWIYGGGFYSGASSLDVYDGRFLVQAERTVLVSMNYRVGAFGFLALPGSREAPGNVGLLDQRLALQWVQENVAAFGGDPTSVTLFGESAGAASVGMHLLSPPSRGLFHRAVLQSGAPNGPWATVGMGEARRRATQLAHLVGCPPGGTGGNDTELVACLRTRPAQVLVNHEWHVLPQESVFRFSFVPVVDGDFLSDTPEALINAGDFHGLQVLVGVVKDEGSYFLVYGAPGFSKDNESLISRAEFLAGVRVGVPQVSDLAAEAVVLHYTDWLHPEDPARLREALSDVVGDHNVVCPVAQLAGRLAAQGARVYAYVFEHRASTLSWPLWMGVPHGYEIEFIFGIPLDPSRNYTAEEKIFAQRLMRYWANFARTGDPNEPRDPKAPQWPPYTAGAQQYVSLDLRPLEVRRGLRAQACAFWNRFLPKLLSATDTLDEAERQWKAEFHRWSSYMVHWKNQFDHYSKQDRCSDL

Compound	IC50 [nM]
CN(CCCCCNC(=S)NC(=O)c1ccccc1)CC1CCCCC1 [Compound 5, 1-Benzoyl-3-[5-(N-cyclohexylmethyl-N-methylamino)pentyl]thiourea]	50
COc1ccc(C(=O)NC(=S)NCCOCCN(C)Cc2ccccc2)cc1 [Compound 11]	26
CN(CCOCCNC(=S)NC(=O)c1ccc(Cl)cc1)Cc1ccccc1 [Compound 12]	30
CN(CCOCCNC(=S)NC(=O)c1cccc([N+](=O)[O-])c1)Cc1ccccc1 [Compound 13]	15
CN(CCOCCNC(=S)NC(=O)c1ccc(Cl)c(Cl)c1)Cc1ccccc1 [Compound 14]	55
CN(CCOCCNC(=S)NC(=O)c1ccc2ccccc2c1)Cc1ccccc1 [Compound 16]	100
